Legend:
[1] = system: patients with pancreatic cancer; test: Swedish nation-wide register study, cancer specific survival of antihistamine users vs non-users: pancreatic cancer; type: in vivo, human; conditions: for effect of use on pancreatic cancer survival: users vs non-users, in words
Protocol: (§1) Both peri- and post-diagnostic antihistamine use was analyzed, using Cox regression models, as well as different subgroups of patients with regard to age, gender (as a proxy for sex) and tumor status.
(§2) Material and methods Linking the Cancer Registry with the Drug Prescription Registry and Cause of Death Registry the survival of over 500 000 cancer patients with cancer in the breast-, prostate, ventrikel, pancreas, kidney, colo-rectal, lung, uterus, ovary, brain, melanoma, lymph gland and bone marrow was studied between 2005-2014.
(§3) Use of the six major antihistamines was established using the Swedish Prescribed Drug Register, a record of all dispensed prescribed pharmaceuticals in Sweden since July 1st 2005. To be included in the registry at least 2 weeks of prescription is required. Prescription free antihistamine use, non-dispensed doses, or use of other, less common, types of antihistamines is here considered non-use. Causes of death were obtained from the Swedish Cause of Death Register, a database where all deaths have been recorded since 1952. Data was pseudo-anonymized and the study was approved by the Regional Ethics Board.
(§4) We analyzed both the peri- and cumulative post-diagnostic use of antihistamines among […]. Peri-diagnostic use was a proxy for ever-use, and is here defined as use within six months pre-diagnosis and six months post-diagnosis, where the main antihistamine (in terms of dispensed defined daily doses, or DDDs) used by each individual during this time was identified. The analysis was done using a Cox regression model with time to even or censoring in years as a time scale. Subgroup analyses were made for groups based on age and gender (as a proxy for sex).
(§5) For the cumulative post-diagnostic antihistamine use analysis, mortality rates for antihistamine users were compared to those of non-users through a Cox regression model allowing for time varying covariates, and survival time was measured in years since diagnosis. […] The impact of the cumulative DDDs was assessed after log transformation of the DDDs plus one3. […]

[2] = system: patients with gastric cancer; test: Swedish nation-wide register study, cancer specific survival of antihistamine users vs non-users: gastric cancer; type: in vivo, human; conditions: for effect of use on gastric cancer survival: users vs non-users, in words
Protocol: as §1, §2, §3, §4, §5

[3] = system: patients with ovarian cancer; test: Swedish nation-wide register study, cancer specific survival of antihistamine users vs non-users: ovarian cancer; type: in vivo, human; conditions: for effect of use on ovarian cancer survival: users vs non-users, in words
Protocol: as §1, §2, §3, §4
(§6) For the cumulative post-diagnostic antihistamine use analysis, mortality rates for antihistamine users were compared to those of non-users through a Cox regression model allowing for time varying covariates, and survival time was measured in years since diagnosis. This allowed for a single individual to provide data as both a non-user and user of different antihistamines. The impact of the cumulative DDDs was assessed after log transformation of the DDDs plus one3. Cox regression analyses were stratified for patient age at diagnosis, tumor size and node status (T and N status, respectively). A lag-time analysis was performed as described by Tamim et al. and Richardson et al. Statistical analyses were performed using R version XXX6.
(§7) Information on stage, socio-economic factors, tumour therapies, and prognostic tumour factors are not present in the national registries.
(§8) The confidence interval (95% CI) indicates the level of uncertainty around the measure of effect. A 95% confidence interval means that the confidence interval covers the true value in 95 of 100 studies performed. […]

[4] = system: all tumour types; test: Swedish nation-wide register study, cancer specific survival of antihistamine users vs non-users: across tumour types; type: in vivo, human; conditions: for effect of use on survival, all tumour types: users vs non-users, in words
Protocol: as §1, §2, §3, §4, §6, §7, §8

[5] = system: breast cancer; test: Swedish nation-wide register study, cancer specific survival of antihistamine users vs non-users: breast cancer; type: in vivo, human; conditions: in words
Protocol: as §1, §2
Use of the six major antihistamines was established using the Swedish Prescribed Drug Register, a record of all dispensed prescribed pharmaceuticals in Sweden since July 1st 2005. To be included in the registry at least 2 weeks of prescription is required. […] Causes of death were obtained from the Swedish Cause of Death Register, a database where all deaths have been recorded since 1952. […]
We analyzed both the peri- and cumulative post-diagnostic use of antihistamines among melanoma patients. […]
as §5

[6] = system: breast cancer; conditions: earlier filing, in words; cited from earlier work
[7] = system: patients with brain cancer; test: Swedish nation-wide register study, cancer specific survival of antihistamine users vs non-users: brain cancer; type: in vivo, human; conditions: in words
[8] = system: lympho-hematopoetic malignancies; test: Swedish nation-wide register study, cancer specific survival of antihistamine users vs non-users: lympho-hematopoetic malignancies; type: in vivo, human; conditions: in words
Protocol: (§9) For the cumulative post-diagnostic antihistamine use analysis, mortality rates for antihistamine users were compared to those of non-users through a Cox regression model allowing for time varying covariates, and survival time was measured in years since diagnosis. This allowed for a single individual to provide data as both a non-user and user of different antihistamines. The impact of the cumulative DDDs was assessed after log transformation of the DDDs plus one3. Cox regression analyses were stratified for patient age at diagnosis, tumor size and node status (T and N status, respectively). […]

[9] = system: patients with colo-rectal cancer; test: Swedish nation-wide register study, cancer specific survival of antihistamine users vs non-users: colorectal cancer; type: in vivo, human
[10] = system: patients with uterus cancer; test: Swedish nation-wide register study, cancer specific survival of antihistamine users vs non-users: uterine cancer; type: in vivo, human; conditions: in words
[11] = system: patients with Hodgkin's disease; test: Swedish nation-wide register study, cancer specific survival of antihistamine users vs non-users: Hodgkin's disease; type: in vivo, human
[12] = system: patients with lung cancer; test: Swedish nation-wide register study, cancer specific survival of antihistamine users vs non-users: lung cancer; type: in vivo, human
[13] = system: patients with prostate cancer; test: Swedish nation-wide register study, cancer specific survival of antihistamine users vs non-users: prostate cancer; type: in vivo, human; conditions: in words
Protocol: as §9

## O=C(O)COCCN1CCN(C(c2ccccc2)c2ccc(Cl)cc2)CC1 (stereo not shown) [Ceterizine, cetirizine]
[1]
  effect of use on pancreatic cancer survival: better survival
[2]
  effect of use on gastric cancer survival: better survival
[3]
  effect of use on ovarian cancer survival: better survival

## CN1CCC[C@@H]1CCO[C@](C)(c1ccccc1)c1ccc(Cl)cc1 [Clemastine, clemastine]
[4]
  effect of use on survival, all tumour types: consistently showed a worse survival

## CC(C)(C)c1ccc(C(=O)CCCN2CCC(OC(c3ccccc3)c3ccccc3)CC2)cc1 [Ebastine, ebastine]
[5]
  effect of use on breast cancer survival: increased breast cancer survival
[6]
  effect on breast cancer survival (WO 2016/116438): positive effect

## Clc1ccc2c(c1)CCc1cccnc1C2=C1CCNCC1 [desloratadine]
[1]; pancreatic cancer, baseline 5 year survival about 8% 2016, FIG. 1
  5 year survival chance increased by (pancreatic cancer): 35%
[1]
  effect of use on pancreatic cancer survival: consistently beneficial effect
[4]; said cancers, survival curves with follow up parallel to non-treated, FIGS. 7 to 18
  curative effect suggested by survival curves: 10-20%
[7]
  effect of use on brain cancer survival: no effect
[5]
  effect of use on breast cancer survival: consistently beneficial effect
[8]
  effect of use on survival in lympho-hematopoetic malignancies: no effect
[9]; colorectal cancer, baseline 5 year survival about 65% 2016, FIG. 1
  5 year survival chance increased by (colorectal cancer): 15%
[9]; users vs non-users, in words
  effect of use on colorectal cancer survival: consistently beneficial effect
[6]
  effect on breast cancer survival (WO 2016/116438): positive effect
[10]
  effect of use on uterine cancer survival: no effect
[2]; gastric cancer, baseline 5 year survival 25% 2016, FIG. 1
  5 year survival chance increased by (gastric cancer): 30%
[2]
  effect of use on gastric cancer survival: consistently beneficial effect
[11]; Hodgkin's disease, baseline 5 year survival about 86% 2016, FIG. 1
  5 year survival chance increased by (Hodgkin's disease): 17%
[11]; users vs non-users, in words
  effect of use on Hodgkin's disease survival: strong survival benefit
[12]; lung cancer, baseline 5 year survival about 20% 2016, FIG. 1
  5 year survival chance increased by (lung cancer): 15%
[12]; users vs non-users, in words
  effect of use on lung cancer survival: consistently beneficial effect
[13]
  effect of use on prostate cancer survival: consistently beneficial effect
[3]; ovarian cancer, baseline 5 year survival about 55% 2016, FIG. 1
  5 year survival chance increased by (ovarian cancer): 17%
[3]
  effect of use on ovarian cancer survival: consistently beneficial effect

## CC(C)(C(=O)O)c1ccc(C(O)CCCN2CCC(C(O)(c3ccccc3)c3ccccc3)CC2)cc1 (stereo not shown) [fexofenadine]
[4]
  effect of use on survival, all tumour types: insignificant

## CCOC(=O)N1CCC(=C2c3ccc(Cl)cc3CCc3cccnc32)CC1 [loratadine]
[4]; FIGS. 7 to 18, in words
  course of survival curves relative to non-users: most survival curves became parallel to non-users suggesting a long time curative effect
[3]
  effect of use on ovarian cancer survival: survival was better
